Data taken from article PMC4556985, “Inhibitors of ORAI1 Prevent Cytosolic Calcium-Associated Injury of Human Pancreatic Acinar Cells and Acute Pancreatitis in 3 Mouse Models” (Gastroenterology, 2015).

Target: T1, ORAI1 (Homo sapiens, UniProt Q96D31)
T1 construct: with STIM1 (human, co-expressed)
Test: whole-cell patch clamp of ICRAC in HEK […] cells stably expressing hORAI1/hSTIM1
Type: cell-based

T1 sequence (Q96D31 whole entry): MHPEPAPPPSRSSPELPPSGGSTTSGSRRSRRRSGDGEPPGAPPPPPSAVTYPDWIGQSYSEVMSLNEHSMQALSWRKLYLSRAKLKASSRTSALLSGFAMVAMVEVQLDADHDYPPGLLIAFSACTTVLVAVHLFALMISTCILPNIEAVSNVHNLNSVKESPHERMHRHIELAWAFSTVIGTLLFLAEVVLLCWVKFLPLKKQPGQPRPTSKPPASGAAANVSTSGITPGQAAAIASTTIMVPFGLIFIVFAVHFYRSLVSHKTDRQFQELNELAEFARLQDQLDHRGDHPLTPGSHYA
T1 sequence (Q13586 23-685 partner): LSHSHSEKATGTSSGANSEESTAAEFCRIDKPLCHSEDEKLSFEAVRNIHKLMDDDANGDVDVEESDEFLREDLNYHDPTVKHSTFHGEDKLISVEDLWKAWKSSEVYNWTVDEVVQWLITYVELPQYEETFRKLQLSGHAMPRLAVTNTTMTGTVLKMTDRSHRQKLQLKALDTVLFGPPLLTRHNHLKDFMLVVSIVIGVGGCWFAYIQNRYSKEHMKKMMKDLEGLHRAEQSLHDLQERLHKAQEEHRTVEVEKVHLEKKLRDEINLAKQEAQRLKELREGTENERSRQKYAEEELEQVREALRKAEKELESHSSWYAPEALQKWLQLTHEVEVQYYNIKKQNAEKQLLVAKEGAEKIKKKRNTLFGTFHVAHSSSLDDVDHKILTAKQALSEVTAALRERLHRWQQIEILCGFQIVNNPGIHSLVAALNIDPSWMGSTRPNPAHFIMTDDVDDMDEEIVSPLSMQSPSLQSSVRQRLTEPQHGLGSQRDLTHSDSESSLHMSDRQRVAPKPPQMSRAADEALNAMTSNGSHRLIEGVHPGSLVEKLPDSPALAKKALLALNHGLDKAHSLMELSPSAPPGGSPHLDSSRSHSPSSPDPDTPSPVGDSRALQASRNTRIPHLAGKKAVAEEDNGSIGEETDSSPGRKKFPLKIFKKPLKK

IC50: ~100 nM
SMILES: Cc1cccc(F)c1C(=O)Nc1cnc(-c2cc3c(cc2Cl)OC(F)(F)O3)cn1 [CM_128]
